From US8633199B2, “Medicine consisting of concomitant use or combination of DPP-IV inhibitor and other diabetic medicine” (Sanwa Kagaku Kenkyusho Co., Ltd., priority 2008, dated 2014)

How the values were obtained:
Type in all cases: in vivo, rat
Wistar rats = test: Oral corn starch loading test, plasma GIP (ELISA); conditions: oral compound (I) 3 mg/kg, Metformin 300 mg/kg, 30 min before corn starch loading, AUC 0-180 min, FIG. 8
Description: Effects of compound (I) alone, Metformin alone and concomitant use of compound (I) and Metformin on concentration of GIP in plasma during oral corn starch loading test in Slc: Wistar/ST rats (hereinafter abbreviated as Wistar rats) An operation to insert a polyurethane catheter was performed on the right jugular vein of a Wistar rat (9 weeks old, male, Japan SLC, Inc.), and experiments were performed in the following four groups. (1) Control group: purified water was administered at a ratio of 5 ml/kg (2) Compound (I) group: the compound (I) dissolved in purified water was administered at a dose of 3 mg/kg (5 ml/kg) […] Metformin dissolved in purified water was administered at a dose of 300 mg/kg (5 ml/kg) (4) Concomitant use group: the compound (I) and Metformin dissolved in purified water were administered at respective doses of 3 mg/kg (5 ml/kg) and 300 mg/kg (5 ml/kg) […] Blood was collected from the catheter immediately before administration and after administration of corn starch, and centrifuged at 4° C., 3000 rpm for 10 minutes to obtain plasma. The concentration of the GIP in the obtained plasma was measured by ELISA (RAT/MOUSE GIP (TOTAL) ELISA KIT, LINCO Research, Inc., US). Based on the measured GIP concentration, AUC from immediately before the administration of starch to 180 minutes after the administration was calculated.

ZDF rats = test: Oral corn starch loading test, plasma active GLP-1, glucose and insulin; conditions: oral compound (I) 3 mg/kg, Metformin 300 mg/kg, 15 min before corn starch loading, AUC 0-180 min; for increase of the concentration of the active GLP-1 in the plasma (AUC of change): FIG. 5; for plasma glucose elevation (AUC): FIG. 6
Description: An operation to insert a polyurethane catheter was performed on the right jugular vein of a ZDF rat (13 weeks old, male, Charles River Laboratories Japan, Inc.), and experiments were performed in the following four groups. (1) Control group: purified water was administered at a ratio of 5 ml/kg (2) Compound (I) group: the compound (I) dissolved in purified water was administered at a dose of 3 mg/kg (5 ml/kg) […] Metformin dissolved in purified water was administered at a dose of 300 mg/kg (5 ml/kg) (4) Concomitant use group: the compound (I) and Metformin dissolved in purified water were administered at respective doses of 3 mg/kg (5 ml/kg) and 300 mg/kg (5 ml/kg) […] Blood was collected from the catheter immediately before administration and after administration of corn starch, and centrifuged at 4° C., 3000 rpm for 10 minutes to obtain plasma. The concentration of the active GLP-1 in the obtained blood plasma was measured by ELISA (GLUCAGON-LIKE PEPTIDE-1 (ACTIVE) ELISA KIT, LINCO Research, Inc., US), the plasma glucose and insulin concentrations of the obtained plasma was measured by Glucose C2 (Wako Pure Chemical Industries, Ltd., Japan) and ELISA (Rat Insulin ELISA Kit, Shibayagi, Co., Ltd., Japan), respectively. Based on the measured concentration of the active GLP-1 in the plasma, the amount of change relative to the concentration immediately before starch administration was obtained. Based on the amount of change relative to the plasma active GLP-1, glucose and insulin concentrations, AUC from immediately before the administration of starch to 180 minutes after the administration was calculated. The result of the plasma active GLP-1 concentration is shown in FIG. 5, the result of the plasma glucose concentration is shown in FIG. 6 and the result of the plasma insulin concentration is shown in FIG. 7.

Zucker fatty rats [1] = test: Oral sucrose loading test, plasma active GLP-1 (ELISA); conditions: oral 3 mg/kg each drug 15 min before sucrose loading, AUC 0-120 min, FIG. 1
Description: Effects of compound (I) alone, Miglitol alone and concomitant use of compound (I) and Miglitol on plasma concentration of active GLP-1 during oral sucrose loading test in Slc: Zucker-fa/fa rats (hereinafter abbreviated as Zucker fatty rats)
An operation to insert a polyurethane catheter was performed on the right jugular vein of a Zucker fatty rat (9 weeks old, male, Japan SLC, Inc.) which is an obesity-insulin resistant model, and experiments were performed in the following four groups.
(§1) (1) Control group: purified water was administered at a ratio of 5 ml/kg
(§2) (2) Compound (I) group: the compound (I) dissolved in purified water was administered at a dose of 3 mg/kg (5 ml/kg)
(§3) (3) Miglitol group: Miglitol dissolved in purified water was administered at a dose of 3 mg/kg (5 ml/kg)
(§4) (4) Concomitant use group: the compound (I) and Miglitol dissolved in purified water were administered at respective dose of 3 mg/kg (5 ml/kg)
Purified water, the compound (I) and Miglitol were orally administered respectively to the Zucker fatty rats fasted overnight in each group as described in (1) to (4), and after 15 minutes, a 30% aqueous sucrose solution was administered at a ratio of 10 ml/kg. […] The concentration of an active GLP-1 in the obtained plasma was measured by an enzyme immunoassay (hereinafter abbreviated as ELISA) (GLUCAGON-LIKE PEPTIDE-1 (ACTIVE) ELISA KIT, LINCO Research, Inc., US). […]

Zucker fatty rats [2] = test: Liquid diet loading test, plasma GIP, glucose and insulin; conditions: oral 3 mg/kg each drug 15 min before liquid diet loading; for increase in the plasma glucose concentration (AUC): AUC 0-60 min, FIG. 3; for increase in the GIP concentration in plasma (AUC, total GIP): AUC 0-120 min, FIG. 2
Description: Effects of compound (I) alone, Miglitol alone and concomitant use of compound (I) and Miglitol on GIP, glucose and insulin concentrations in plasma during liquid diet loading test in Crlj: ZUC-Lepr^fa Genotype: fa/fa rats (hereinafter abbreviated as Zucker fatty rats)
An operation to insert a polyurethane catheter was performed on the right jugular vein of a Zucker fatty rat (8 weeks old, male, Charles River Laboratories Japan, Inc.), which is an obesity and insulin-resistant model, and experiments were performed in the following four groups.
as §1, §2, §3, §4
Purified water, the compound (I) and Miglitol were orally administered respectively to the Zucker fatty rats fasted overnight in each group as described in (1) to (4), and after 15 minutes, a liquid diet (trade mark: ENSURE H, Meiji Dairies Corporation, Japan) was administered at a ratio of 10 ml/kg to carry out a diet loading test. Blood was collected from the catheter immediately before loading and after loading of the liquid diet, and centrifuged at 4° C., 3000 rpm for 10 minutes to obtain plasma. The GIP concentration in the obtained plasma was measured by an ELISA (RAT/MOUSE GIP (TOTAL) ELISA KIT, LINCO Research, Inc., US), and the plamsa glucose and insulin concentrations was measured by Glucose C2 (Wako Pure Chemical Industries, Ltd., Japan) and ELISA (Rat Insulin ELISA Kit, Shibayagi, Co., Ltd., Japan), respectively. Based on the measured GIP concentration in plasma, AUC from immediately before the loading of the liquid diet to 120 minutes after the loading was calculated. Based on the measured plasma glucose and insulin concentrations, AUC from immediately before the loading of the liquid diet to 60 minutes after the loading was calculated. […] The result of the GIP concentration in plasma is shown in FIG. 2, the result of the plasma glucose level is shown in FIG. 3 and the result of the plasma insulin concentration is shown in FIG. 4.

| SMILES | increase in the concentration of GIP in plasma (AUC, total GIP) (Wistar rats) | increase of the concentration of the active GLP-1 in the plasma (AUC of change) (ZDF rats) | plasma glucose elevation (AUC) (ZDF rats) | increase of the concentration of the active GLP-1 in the plasma (AUC of change) (Zucker fatty rats [1]) | increase in the plasma glucose concentration (AUC) (Zucker fatty rats [2]) | increase in the GIP concentration in plasma (AUC, total GIP) (Zucker fatty rats [2]) |
| --- | --- | --- | --- | --- | --- | --- |
| CN(C)C(=N)N=C(N)N [Metformin] | significantly suppressed | no significant difference | significantly suppressed | – | – | – |
| OCCN1C[C@H](O)[C@@H](O)[C@H](O)[C@H]1CO [Miglitol] | – | – | – | no significant difference | no significant difference | showed a tendency of suppressing |
| Cc1cc2ncc(C(=O)NCC(C)(C)NCC(=O)N3CCC[C@H]3C#N)cn2n1 [compound (I), (S)—N-(2-(2-(2-cyanopyrrolidin-1-yl)-2-oxoethylamino)-2-methylpropyl)-2-methylpyrazolo[1,5-a]pyrimidine-6-carboxamide] | no change | increased the concentration significantly | no significant difference | increased the concentration significantly | no significant difference | no change |
